Patent US4590178A (Ajinomoto Company, Incorporated, priority 1982, dated 1986)

System: spontaneously hypertensive rats
Experiment: Antihypertensive activity: systolic blood pressure measured indirectly on conscious SHR after peroral dosing
Type: in vivo, rat
Conditions: for Systolic Blood Pressure, Pretreatment: SHR (male, 13 months, 2 per sample), before 35 mg/kg peroral single dose; for Systolic Blood Pressure, 4 hrs after administration / Δ Blood Pressure: SHR; for Systolic Blood Pressure, 4 hrs after administration: 4 hours after 35 mg/kg peroral single dose; for Δ Blood Pressure: 4 hours after 35 mg/kg peroral single dose versus pretreatment
Description: The antihypertensive activity of part of the amino acid derivatives prepared above, was determined.
As subject animals 2 SHR were used which had been trained enough and been confirmed to be hypertensive spontaneously hypertensive rats (male, 13 months of age, the body weight of 400 to 440 g) per sample.
As an instrument for measuring the blood pressure a Programmed Electro-Sphygmomanometer PE-300 (Narco Co., U.S.A.) was used, and the blood pressure was indirectly measured on conscious rats.
An aqueous solution or suspension of a sample (35 mg/kg) was once force-fed into the stomach by means of a peroral probe.
An antihypertensive activity of part of the amino acid derivatives prepared above was determined.
As subject animals there were used 2 SHR which had been trained enough and been confirmed to be hypertensive spontaneously hypertensive rats (male, 13 months of age, the body weight of 400~440 g) per sample.
As an instrument for measuring the blood pressure there was used Programmed Electro-Sphygmomanometer PE-300 (Narco Co., U.S.A.), and the blood pressure was indirectly measured on conscious rats.
An antihypertensive activity of the product prepared above was determined.

Compound	Systolic Blood Pressure, Pretreatment	Systolic Blood Pressure, 4 hrs after administration	Δ Blood Pressure
C[C@H](NP(=O)(OCc1ccccc1)OCc1ccccc1)C(=O)N1CCC[C@H]1C(=O)NCC(=O)O.N=C(N)NCCC[C@H](N)C(=O)O [Example 6, Dibenzylphosphory-L-alanyl-L-prolyl-glycine L-arginine salt]	212 mm Hg	190 mm Hg	-22 mm Hg
C[C@H](NP(=O)(OCc1ccccc1)OCc1ccccc1)C(=O)N1CCC[C@H]1C(=O)N[C@@H](CCCNC(=N)N)C(=O)O [Example 13]	181 mm Hg	162 mm Hg	-19 mm Hg
Dibenzylphosphoryl-L-alanyl-L-prolyl-L-serine L-arginine salt [Example 2]	202 mm Hg	180 mm Hg	-22 mm Hg
Dibenzylphosphoryl-L-alanyl-L-prolyl-L-proline dicyclohexylamine salt [Example 74]	195 mm Hg	165 mm Hg	-30 mm Hg
Dibenzylphosphoryl-glycyl-L-prolyl-L-proline L-arginine salt [Example 19]	196 mm Hg	181 mm Hg	-15 mm Hg
Dibenzylphosphoryl-L-prolyl-L-tyrosine L-arginine salt [Example 4]	207 mm Hg	195 mm Hg	-12 mm Hg
Phosphoryl-L-alanyl-L-prolyl-L-proline L-arginine salt [Example 8]	196 mm Hg	177 mm Hg	-19 mm Hg
Dibenzylphosphoryl-L-alanyl-L-prolyl-D-alanine L-arginine salt [Example 14]	183 mm Hg	161 mm Hg	-22 mm Hg
CCCCCP(=O)(O)N[C@@H](C)C(=O)N1CCC[C@H]1C(=O)N1CCC[C@H]1C(=O)[O-].CCCCCP(=O)(O)N[C@@H](C)C(=O)N1CCC[C@H]1C(=O)N1CCC[C@H]1C(=O)[O-].[Na+].[Na+] [Example 38, N-n-Amylphosphonyl-L-alanyl-L-prolyl-L-proline 2 sodium salt]	187 mm Hg	167 mm Hg	-20 mm Hg
Dibenzylphosphoryl-L-alanyl-N-(2-indanyl)-glycyl-L-proline L-arginine salt [Example 31]	199 mm Hg	169 mm Hg	-30 mm Hg
Dibenzylphosphoryl-L-alanyl-L-prolyl-L-proline L-lysine salt [Example 24]	192 mm Hg	161 mm Hg	-31 mm Hg
C[C@H](NP(=O)(O)OCc1ccccc1)C(=O)N1CCC[C@H]1C(=O)N1CCC[C@H]1C(=O)O.C[C@H](NP(=O)(O)OCc1ccccc1)C(=O)N1CCC[C@H]1C(=O)N1CCC[C@H]1C(=O)O.N.N [Example 57, Monobenzylphosphoryl-L-alanyl-L-propyl-L-proline diammonium salt]	195 mm Hg	167 mm Hg	-28 mm Hg
CSCC[C@H](NP(=O)(CCc1ccccc1)OCc1ccccc1)C(=O)N1CCC[C@H]1C(=O)N1CCC[C@H]1C(=O)O.NC(N)=NCCC[C@H](N)C(=O)O (stereo partly drawn) [Example 35, N-(O-Benzyl-P-phenethylphosphonyl)-L-methionyl-L-prolyl-L-proline L-arginine salt]	191 mm Hg	158 mm Hg	-33 mm Hg
C[C@H](NP(=O)(OCc1ccccc1)OCc1ccccc1)C(=O)N1CCC[C@H]1C(=O)N1C[C@H](O)C[C@H]1C(=O)O.N=C(N)NCCC[C@H](N)C(=O)O (relative stereo) [Example 16, Dibenzylphosphoryl-L-alanyl-L-prolyl-trans-L-hydroxyproline L-arginine salt]	181 mm Hg	162 mm Hg	-19 mm Hg
O=C(O)[C@@H]1CCCN1C(=O)[C@@H]1CCCN1C(=O)[C@H](Cc1ccccc1)NP(=O)(Cc1ccccc1)Cc1ccccc1 [Example 20, Dibenzylphosphoryl-L-phenylalanyl-L-Prolyl-L-proline]	184 mm Hg	169 mm Hg	-15 mm Hg
Dibenzylphosphoryl-L-isoleucyl-L-prolyl-L-proline L-arginine salt [Example 18]	192 mm Hg	171 mm Hg	-21 mm Hg
C[C@H](NP(=O)([O-])CCc1ccccc1)C(=O)N1CCC[C@H]1C(=O)N1CCC[C@H]1C(=O)[O-].[Na+].[Na+] [Example 28, N-phenethylphosphonyl-L-alanyl-L-prolyl-L-proline 2 sodium salt]	183 mm Hg	151 mm Hg	-32 mm Hg
C[C@H](NP(=O)(CCc1ccccc1)OCc1ccccc1)C(=O)N1CCC[C@H]1C(=O)N1CCC[C@H]1C(=O)O.NC(N)=NCCC[C@H](N)C(=O)O (stereo partly drawn) [Example 27, N-(O-benzyl-P-phenethylphosphonyl)-L-alanyl-L-prolyl-L-proline L-arginine salt]	180 mm Hg	152 mm Hg	-28 mm Hg
Dibenzylphosphoryl-L-alanyl-L-prolyl-L-proline L-arginine salt [Example 1]	205 mm Hg	170 mm Hg	-35 mm Hg
CCOP(=O)(CCc1ccccc1)N[C@@H](CCCCN)C(=O)N1CCC[C@H]1C(=O)N1CCC[C@H]1C(=O)O.NC(N)=NCCC[C@H](N)C(=O)O (stereo partly drawn) [Example 37, N^α -(O-Ethyl-P-phenethylphosphonyl)-L-lysyl-L-prolyl-L-proline L-arginine salt]	201 mm Hg	172 mm Hg	-29 mm Hg
Dibenzylphosphoryl-L-alanyl-L-prolyl-L-aspartic acid L-arginine salt [Example 3]	208 mm Hg	197 mm Hg	-11 mm Hg
C[C@H](NP(=O)(O)CCc1ccccc1)C(=O)N(CC(=O)N1CCC[C@H]1C(=O)[O-])C1Cc2ccccc2C1.C[C@H](NP(=O)(O)CCc1ccccc1)C(=O)N(CC(=O)N1CCC[C@H]1C(=O)[O-])C1Cc2ccccc2C1.[Na+].[Na+] [Example 29, N-Phenethylphosphonyl-L-alanyl-N-(2-indanyl)glycyl-L-proline 2 sodium salt]	203 mm Hg	172 mm Hg	-31 mm Hg
CSCC[C@H](NP(=O)(OCc1ccccc1)OCc1ccccc1)C(=O)N1CCC[C@H]1C(=O)N1CCC[C@H]1C(=O)O.N=C(N)NCCC[C@H](N)C(=O)O [Example 33, Dibenzylphosphoryl-L-methionyl-L-propyl-L-proline L-arginine salt]	186 mm Hg	168 mm Hg	-18 mm Hg
Diethylphosphoryl-L-methionyl-L-prolyl-L-proline L-argine salt [Example 44]	189 mm Hg	179 mm Hg	-10 mm Hg
CCOP(=O)(CCc1ccccc1)N[C@@H](C)C(=O)N1CCC[C@H]1C(=O)N1CCC[C@H]1C(=O)[O-].[Na+] (stereo partly drawn) [Example 43, N--(O--ethyl-P--phenethylphosphonyl)-L-alanyl-L-prolyl-L-proline sodium salt]	195 mm Hg	171 mm Hg	-24 mm Hg
C[C@H](NP(=O)(OCc1ccccc1)OCc1ccccc1)C(=O)N1C[C@H](O)C[C@H]1C(=O)N1CCC[C@H]1C(=O)O (relative stereo) [Example 17, Dibenzylphosphoryl-L-alanyl-trans-L-hydroxyprolyl-L-proline]	182 mm Hg	163 mm Hg	-19 mm Hg
N=C(N)NCCC[C@H](NP(=O)(Cc1ccccc1)Cc1ccccc1)C(=O)N1CCC[C@H]1C(=O)N1CCC[C@H]1C(=O)O [Example 21, Dibenzylphosphoryl-L-arginyl-L-prolyl-L-proline]	191 mm Hg	167 mm Hg	-24 mm Hg
COC(=O)[C@@H]1CCCN1C(=O)[C@@H]1CCCN1C(=O)[C@H](C)NP(=O)([O-])CCc1ccccc1.[Na+] [Example 80, N-Phenethylphosphonyl-L-alanyl-L-prolyl-L-proline methylester sodium salt]	193 mm Hg	183 mm Hg	-10 mm Hg
